Results published in paper PMC2374293, “The equilibrium and kinetic drug binding properties of the mouse P-gp1a and P-gp1b P-glycoproteins are similar” (British Journal of Cancer, 1999).
pKd, pKi: −log10 of the molar value.

Legend:
P-gp [1] = assay: Sensitivity of [3H]vinblastine binding to DMSO; design: species or system mouse
Excerpt: (§1) The two murine proteins share 84% amino acid identity, although the linker region which contains several sites for phosphorylation by protein kinase C (PKC) is the least conserved region between the two isoforms (Devault and Gros, 1990). […] P-gp1a is expressed at high levels in the intestine, liver and testis, and also in the lung and brain where it is thought to contribute to the blood-brain barrier (Schinkel et al, 1994). In contrast, P-gp1b is expressed in tissues associated with steroid biosynthesis and distribution, such as the adrenal gland and ovary, and is induced specifically in the uterus during pregnancy (Arceci et al, 1988; Trezise et al, 1992). The steroid hormone progesterone increases during pregnancy, and the mdr1b gene, but not the mdr1a gene, is regulated by a progesterone response element in its promoter (Piekarz et al, 1993). Direct evidence that the P-gp1b isoform can transport steroids comes from the observation that disruption of the mdr1b gene in mouse adrenal cells is associated with decreased adrenocorticotropic hormone-stimulated steroid secre- tion (Altuvia et al, 1993). […] More specifically, progesterone inhibits vinblastine binding and azidopine photolabelling of both of the mouse P-gp isoforms in vitro (Yang et al, 1990), showing that both isoforms are capable of interacting with steroids. […]

P-gp [2] = assay: Binding of [3H]progesterone to P-gp; design: species or system mouse; conditions: data not shown
Excerpt: as §1

[3] = [3H]vinblastine binding to LR73 membranes that do not express P-gp; design: species or system Chinese hamster; conditions: data not shown
Excerpt: as §1

P-gp1b [4] = biological target: T1, P-gp1b (Mus musculus, UniProt P06795); assay: Equilibrium (saturation) binding of [3H]vinblastine to LR73-1b plasma membranes, rapid filtration
T1 construct: expressed in transfected cells; host or cells: Chinese hamster ovary LR73 cells (LR73-1b), plasma membrane fraction
Excerpt: (§2) The two murine proteins share 84% amino acid identity, although the linker region which contains several sites for phosphorylation by protein kinase C (PKC) is the least conserved region between the two isoforms (Devault and Gros, 1990). […] P-gp1a is expressed at high levels in the intestine, liver and testis, and also in the lung and brain where it is thought to contribute to the blood-brain barrier (Schinkel et al, 1994). In contrast, P-gp1b is expressed in tissues associated with steroid biosynthesis and distribution, such as the adrenal gland and ovary, and is induced specifically in the uterus during pregnancy (Arceci et al, 1988; Trezise et al, 1992). The steroid hormone progesterone increases during pregnancy, and the mdr1b gene, but not the mdr1a gene, is regulated by a progesterone response element in its promoter (Piekarz et al, 1993). Direct evidence that the P-gp1b isoform can transport steroids comes from the observation that disruption of the mdr1b gene in mouse adrenal cells is associated with decreased adrenocorticotropic hormone-stimulated steroid secre- tion (Altuvia et al, 1993). […] More specifically, progesterone inhibits vinblastine binding and azidopine photolabelling of both of the mouse P-gp isoforms in vitro (Yang et al, 1990), showing that both isoforms are capable of interacting with steroids. However, if the distinct tissue-specific patterns of expression of P-gp1a and P-gp1b reflect differences in function related to steroid transport, it is important to show directly that the two proteins are functionally distinct. […] Summary The gene encoding the multidrug resistance P-glycoprotein (P-gp) is duplicated in rodent species and the functional basis for this remains unresolved. […] In the present study possible biochemical differences between the isoforms were directly investigated at the level of drug interaction. […]

P-gp1a [5] = biological target: T2, P-gp1a (Mus musculus, UniProt P21447); assay: Equilibrium (saturation) binding of [3H]vinblastine to LR73-1a plasma membranes, rapid filtration; conditions: LR73-1a membranes, mean s.e.m.
T2 construct: expressed in transfected cells; host or cells: Chinese hamster ovary LR73 cells (LR73-1a), plasma membrane fraction
Excerpt: as §1

P-gp1a [6] = biological target: T2, P-gp1a; assay: Association kinetics of [3H]vinblastine binding to LR73-1a membranes
Excerpt: as §2

P-gp1b [7] = biological target: T1, P-gp1b; assay: Association kinetics of [3H]vinblastine binding to LR73-1b membranes
Excerpt: as §2

P-gp1b [8] = biological target: T1, P-gp1b; assay: Displacement of equilibrium [3H]vinblastine binding, LR73-1b membranes
Excerpt: as §1

P-gp1a [9] = biological target: T2, P-gp1a; assay: Displacement of equilibrium [3H]vinblastine binding, LR73-1a membranes
Excerpt: as §1

[10] = test system: drug-sensitive cells (LR73); assay: Vinblastine sensitivity of drug-sensitive cells in culture; assay type: cell-based, Chinese hamster; conditions: Cricetulus griseus
Excerpt: as §1

[11] = test system: Drug-resistant lines (LR73-1a, LR73-1b); assay: Maximal vinblastine resistance level of drug-resistant lines in culture; assay type: cell-based, Chinese hamster; conditions: Cricetulus griseus, read-out: EC50, maximal resistance level of the cells
Excerpt: as §1

T2 sequence (P21447 whole entry): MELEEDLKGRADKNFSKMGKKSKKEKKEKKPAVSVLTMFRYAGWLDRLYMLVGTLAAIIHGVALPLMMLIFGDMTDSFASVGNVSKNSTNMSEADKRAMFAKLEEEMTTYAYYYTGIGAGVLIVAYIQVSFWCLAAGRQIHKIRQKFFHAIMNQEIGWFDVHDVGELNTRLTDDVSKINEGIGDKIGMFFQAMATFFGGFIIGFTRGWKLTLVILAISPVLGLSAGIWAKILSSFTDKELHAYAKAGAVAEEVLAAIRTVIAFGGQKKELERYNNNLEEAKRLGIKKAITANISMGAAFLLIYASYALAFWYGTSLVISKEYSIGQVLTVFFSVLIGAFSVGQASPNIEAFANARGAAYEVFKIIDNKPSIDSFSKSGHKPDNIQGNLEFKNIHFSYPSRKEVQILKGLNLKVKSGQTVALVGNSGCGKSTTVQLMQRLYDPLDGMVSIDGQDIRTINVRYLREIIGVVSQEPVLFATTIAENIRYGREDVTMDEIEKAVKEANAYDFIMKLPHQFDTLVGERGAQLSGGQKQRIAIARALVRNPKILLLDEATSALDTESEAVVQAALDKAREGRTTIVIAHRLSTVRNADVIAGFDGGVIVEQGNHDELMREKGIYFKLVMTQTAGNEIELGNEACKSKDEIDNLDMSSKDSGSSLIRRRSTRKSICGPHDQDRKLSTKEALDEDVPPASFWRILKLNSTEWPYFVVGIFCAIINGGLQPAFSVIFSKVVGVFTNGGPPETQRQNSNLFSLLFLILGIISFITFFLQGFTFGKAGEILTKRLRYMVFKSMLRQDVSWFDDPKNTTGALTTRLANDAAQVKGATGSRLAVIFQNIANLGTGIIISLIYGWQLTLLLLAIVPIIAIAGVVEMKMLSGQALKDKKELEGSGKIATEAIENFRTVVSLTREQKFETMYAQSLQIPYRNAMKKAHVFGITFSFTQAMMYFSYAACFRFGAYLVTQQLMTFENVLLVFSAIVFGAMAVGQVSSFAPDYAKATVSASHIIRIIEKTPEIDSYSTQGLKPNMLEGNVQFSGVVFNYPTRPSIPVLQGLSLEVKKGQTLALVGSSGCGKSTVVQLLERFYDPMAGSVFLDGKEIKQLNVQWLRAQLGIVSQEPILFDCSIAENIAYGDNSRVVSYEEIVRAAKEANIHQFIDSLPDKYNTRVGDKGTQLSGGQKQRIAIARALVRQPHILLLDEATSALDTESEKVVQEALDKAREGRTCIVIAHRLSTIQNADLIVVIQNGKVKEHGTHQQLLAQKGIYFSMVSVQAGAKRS
T1 sequence (P06795 whole entry): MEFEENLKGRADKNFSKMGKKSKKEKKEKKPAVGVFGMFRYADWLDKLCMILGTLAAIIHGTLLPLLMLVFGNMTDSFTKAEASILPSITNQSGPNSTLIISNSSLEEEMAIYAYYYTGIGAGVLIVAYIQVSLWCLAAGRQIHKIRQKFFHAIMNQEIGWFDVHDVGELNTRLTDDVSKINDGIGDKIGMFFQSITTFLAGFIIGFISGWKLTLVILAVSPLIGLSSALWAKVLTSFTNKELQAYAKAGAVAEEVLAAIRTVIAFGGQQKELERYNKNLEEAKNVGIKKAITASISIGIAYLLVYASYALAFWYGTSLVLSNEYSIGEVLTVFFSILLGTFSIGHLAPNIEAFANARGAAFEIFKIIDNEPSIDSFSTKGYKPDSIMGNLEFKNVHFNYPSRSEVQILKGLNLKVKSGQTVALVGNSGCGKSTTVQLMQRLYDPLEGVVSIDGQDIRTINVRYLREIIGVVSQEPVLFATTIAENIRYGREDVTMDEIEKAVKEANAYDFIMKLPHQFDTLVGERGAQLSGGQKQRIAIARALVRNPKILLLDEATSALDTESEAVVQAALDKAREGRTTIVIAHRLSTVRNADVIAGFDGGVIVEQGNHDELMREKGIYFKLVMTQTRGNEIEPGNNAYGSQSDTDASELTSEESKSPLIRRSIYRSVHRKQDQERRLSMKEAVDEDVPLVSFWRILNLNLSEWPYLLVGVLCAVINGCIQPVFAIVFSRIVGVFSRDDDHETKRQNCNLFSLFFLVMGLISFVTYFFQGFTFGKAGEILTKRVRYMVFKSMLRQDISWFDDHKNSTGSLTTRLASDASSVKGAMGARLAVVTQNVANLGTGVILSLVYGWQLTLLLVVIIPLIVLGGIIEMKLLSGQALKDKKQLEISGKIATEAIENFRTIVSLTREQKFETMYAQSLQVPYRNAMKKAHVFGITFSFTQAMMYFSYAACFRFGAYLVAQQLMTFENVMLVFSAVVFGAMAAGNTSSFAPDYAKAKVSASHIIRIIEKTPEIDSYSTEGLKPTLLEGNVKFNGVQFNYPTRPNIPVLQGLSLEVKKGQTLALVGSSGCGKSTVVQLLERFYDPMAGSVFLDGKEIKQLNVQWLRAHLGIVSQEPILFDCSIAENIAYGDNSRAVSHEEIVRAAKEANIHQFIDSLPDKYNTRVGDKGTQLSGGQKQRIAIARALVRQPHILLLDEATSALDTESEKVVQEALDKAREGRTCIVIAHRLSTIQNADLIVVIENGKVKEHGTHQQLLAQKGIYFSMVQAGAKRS

With `C[S+](C)[O-]` [DMSO, dimethylsulphoxide] as the molecule, how does the “EC50 on [3H]vinblastine binding” value (P-gp [1]) read?
The value was 2.5 % (v/v).

Which “binding characteristics to P-gp” value (P-gp [2]) does the source give for `CC(=O)[C@H]1CC[C@H]2[C@@H]3CCC4=CC(=O)CC[C@]4(C)[C@H]3CC[C@]12C` [[3H]progesterone] here?
Its value is “poor affinity, low specific binding”.

Which specific binding [3] does the source give for `CC[C@]1(O)C[C@@H]2CN(CCc3c([nH]c4ccccc34)[C@@](C(=O)OC)(c3cc4c(cc3OC)N(C)[C@H]3[C@@](O)(C(=O)OC)[C@H](OC(C)=O)[C@]5(CC)C=CCN6CC[C@]43[C@@H]65)C2)C1` [[3H]vinblastine] here?
The specific binding was “did not bind specifically”.

What about the Bmax (P-gp1b [4]; Figure 2, single representative experiment) of the same molecule?
Its Bmax is 8.6 1.4 pmol mg-1.

What about the pKd (P-gp1b [4]; LR73-1b membranes, equilibrium, mean s.e.m., read-out: Kd, affinity of [3H]vinblastine binding) of the same molecule?
Its pKd is 7.51.

What about the “Bmax, density of specific binding sites” value (P-gp1b [4]; LR73-1b membranes, mean s.e.m.) of the same molecule?
Its value is 14.1 2.9 pmol mg-1.

What about the pKd (P-gp1a [5]; equilibrium, read-out: Kd, affinity of [3H]vinblastine binding) of the same molecule?
Its pKd is 7.48.

What about the “Bmax, density of specific binding sites” value (P-gp1a [5]) of the same molecule?
The value was 24.5 2.9 pmol mg-1.

What about the “association rate constant (k+1)” value (P-gp1a [6]; LR73-1a membranes, 15-20 nM [3H]vinblastine) of the same molecule?
The value was 0.002 0.0005 min-1 nM-1.

And the “rate constant of [3H]vinblastine dissociation (k-1)” value (P-gp1a [6]; LR73-1a membranes, derived from Figure 3)?
Its value is 0.07 0.02 min-1.

What about the pKd (P-gp1a [6]; P-gp1a, read-out: Estimate of dissociation constant (Kd = k-1/k+1) using the kinetic data) of the same molecule?
The pKd was 7.46.

What about the “association rate constant (k+1)” value (P-gp1b [7]; LR73-1b membranes, 15-20 nM [3H]vinblastine) of the same molecule?
The value was 0.002 0.0006 min-1 nM-1.

And the “rate constant of [3H]vinblastine dissociation (k-1)” value (P-gp1b [7]; LR73-1b membranes, derived from Figure 3)?
Its value is 0.11 0.02 min-1.

And the pKd (P-gp1b [7]; P-gp1b, read-out: Estimate of dissociation constant (Kd = k-1/k+1) using the kinetic data)?
The pKd was 7.26.

With `CC(=O)[C@H]1CC[C@H]2[C@@H]3CCC4=CC(=O)CC[C@]4(C)[C@H]3CC[C@]12C` [progesterone] as the molecule, how does the pKi (P-gp1b [8]) read?
Its pKi is 5.74.

And the pKi (P-gp1a [9])?
Its pKi is 5.72.

What does the source list for `CC[C@]1(O)C[C@@H]2CN(CCc3c([nH]c4ccccc34)[C@@](C(=O)OC)(c3cc4c(cc3OC)N(C)[C@H]3[C@@](O)(C(=O)OC)[C@H](OC(C)=O)[C@]5(CC)C=CCN6CC[C@]43[C@@H]65)C2)C1` [vinblastine sulphate, Vinblastine sulphate]?
EC50 [10]: 0.01 µg/mL; EC50 [11]: 0.2 to 0.25 µg/mL
